Data: patent US9649382B2, “Topical bioadhesive formulations” (CAMURUS AB, priority 2005, dated 2017)
Where a name gives a salt, the structure may show the parent alone.

Experiments:
[1] = stated as clinically effective level; cited from earlier work
[2] = Surface gel formation of chlorhexidine depots in situ; assay type: physicochemical; settings: applied as a liquid, bioadhesive gel in situ
Source text: For topical bioadhesive, controlled release products for intraoral (including buccal & periodontal) administration; • i. benzydamine (local analgesic, anti inflammatory) or other local analgesic, analgesic, anti inflammatory, anti bacterial, anti fungal or combination thereof. Composition provides sustained effect at intraoral mucosa, in particular damaged, sensitised, infected mucosa e.g. in patients suffering from oral mucositis (induced by e.g. chemo- and radiotherapy). In particular for treatment of oral mucositis. • ii. tramadol (analgesic). […] Particularly for long acting effect in periodontal pocket.

[3] = Depot injected into rat periodontal pocket; assay type: in vivo; settings: PC/GDO/EtOH/Gardol (34/51/10/5) injected into rat periodontal pocket
Protocol: In order to treat periodontitis or perimplantitis an antibacterial formulation is injected in the periodontal pocket, and a prolonged effect of the formulation is normally desired. […] The injected composition is observed to transform from the low viscous formulation, and which initially spreads out to fill voids, to form a solid mass by uptake of gingival fluids. An antibacterial depot system is thus provided.
This formulation is injected into the rat periodontal pocket.
Gardol is observed to remain at clinically effective levels in the GCF of the periodontal pockets for a prolonged period (several days).

[4] = SAXD nanostructure of lipid compositions hydrated with PBS; assay type: physicochemical; settings: for API concentration at which the cubic structure is completely lost / API concentration at which transformation into L2 solution begins / API concentration at which the cubic Fd3m structure is not significantly altered: SPC/GDO 35/65, lipid/EtOH/PG 85/10/5, PBS
Protocol: Aqueous phase behavior was studied by hydrating non-aqueous lipid formulations with phosphate buffered saline (0.01 M phosphate buffer with 0.137 M NaCl and 0.002 M KCl, pH 7.4) at various weight ratios: 2:1, 1:1, 1:2 and 1:9. After brief vortexing, samples were left to equilibrate at room temperature for 1 week before X-ray diffraction measurements.
The nanostructure of hydrated lipid samples was studied using synchrotron small angle X-ray diffraction (SAXD). Measurements were performed at the 1911 beam-line at MAX-lab (Lund University, Sweden), using a Pilatus 1M 165 mm CCD detector with a resolution of 981×1043 pixels at a pixel size of 0.172 mm. The lipid samples were mounted between kapton windows in a steel sample holder at a sample-to-detector distance of 1312 mm. Diffractograms were recorded at the X-ray wavelength of 0.91 Å and a beam size of 0.25×0.25 mm (full width at the half maximum) at the sample. Temperature control within 0.1° C. was achieved using computer controlled Julabo heating circulator F12-MC (Julabo Labortechnik GMBH, Seelbach, Germany). When temperature effects were studied, the experiments were performed successively at 25° C., 37° C. and 42° C. with a 3-min exposure time at each temperature and a wait of 10 minutes between temperature steps. The resulting CCD images were integrated and analysed using the Fit2D software provided by Dr. A. Hammersley (http://www.esrf.fr/computing/scientific/FIT2D). Silver behanate calibrated sample-to-detector distance and detector positions were used.

In the case of chlorhexidine, the MIC [1] is given as 125 µg/mL.

With `N=C(NCCCCCCNC(=N)NC(=N)Nc1ccc(Cl)cc1)NC(=N)Nc1ccc(Cl)cc1.O=C(O)[C@H](O)[C@@H](O)[C@H](O)[C@H](O)CO.O=C(O)[C@H](O)[C@@H](O)[C@H](O)[C@H](O)CO` [chlorhexidine gluconate] the “Surface gel formation time” value [2] was “between 1 second and 5 min”.

With `CCCCCCCCCCCC(=O)N(C)CC(=O)[O-].[Na+]` [Gardol, Glycine, N-methyl-N-(1-oxododecyl)-, sodium salt] the “time Gardol remains at clinically effective levels in the GCF of the periodontal pockets” value [3] was “several days”.

In the case of `CN1C2CCCC1CC(NC(=O)c1nn(C)c3ccccc13)C2` (stereo not shown) [GRN, Granisetron hydrochloride], the “API concentration at which the cubic structure is completely lost” value [4] is reported as “about 1.5 wt %” and the “API concentration at which transformation into L2 solution begins” value [4] is reported as 0.8 wt %.

In the case of `CC1(C)O[C@@H]2C[C@H]3[C@@H]4CCC5=CC(=O)C=C[C@]5(C)[C@@]4(F)[C@@H](O)C[C@]3(C)[C@]2(C(=O)CO)O1` [TCA, triamcinolone acetonide], the “effect on formation and lattice dimensions of the cubic structure” value ([4]; SPC/GDO 35/65, lipid/EtOH/PG 85/10/5) is reported as “very little effect” and the “API concentration at which the cubic Fd3m structure is not significantly altered” value [4] is reported as no less than 5 wt %.

With `CCN(CC)CC(=O)Nc1c(C)cccc1C` [LID, Lidocaine] the “API concentration at which the cubic Fd3m structure is not significantly altered” value [4] was no more than 1.7 wt %, the “API concentration at which the cubic structure is completely lost” value [4] was “lower than 3 wt %” and the “API concentration at which transformation into L2 solution begins” value [4] was 2 wt %.

With `CN(C)CCCOc1nn(Cc2ccccc2)c2ccccc12` [BZD, benzydamine] the “phase formed at lipid formulation to PBS weight ratio of 1:1” value ([4]; 3 wt % BZD, SPC/GDO 35/65) was “cubic Fd3m LC phase is formed”, the “effect on Fd3m LC phase at SPC/GDO weight ratio of 30/70” value ([4]; 3 wt % of BZD, 25° C.) was “transforms into L2 solution” and the “API concentration at which the cubic Fd3m structure is not significantly altered” value [4] was “up to 3.5 wt %”.
